Experimental data reported in patent publication US12486229B2, “Indole derivative and application thereof” (SHANGHAI MEDICILON INC., priority 2020, dated 2025).

Columns and labels:
S1P1 = target: T1, S1P1 (Homo sapiens, UniProt P21453); experiment: S1P1 overexpression cell activity by β-arrestin assay (U2OS-EDG1); format: cell-based; conditions: U2OS-EDG1 cells
T1 construct: host or cells: U2OS (human osteosarcoma) cell line, U2OS-EDG1
Description: The following experiments were conducted to detect the activity of the compound on S1P1 overexpression cells by β-arrestin assay. [table] [table] 3. Experimental Steps Day 1: Cell Seeding Plate and Compound Treatment • (1) Firstly, the compound was diluted by a 4-fold gradient into 10 concentration points from the concentration of 10 μM in the culture plate by using NL fluid transfer system, with 2 replicates at each concentration point. • (2) Cells were resuspended by using FreeStyle™ expression medium, and the cell density was adjusted to 7,500 cells per 40 μL suspension. The samples with test concentration were added into the well of the cell culture plate, and 40 μL cell suspension was added into the corresponding well. • (3) The above cell plates were incubated overnight in a CO2 incubator with 5% (volume fraction) at 37° C. Day 2: Detection and Data Analysis • (1) The buffer solution was prepared according to the preparation method in the instructions of LiveBLAser™-fluorescence resonance energy transfer B/G loading kit. • (2) 8 μL detection reagent was added to each well, which were shaken and mixed evenly for 1 minute, centrifugated at 1,000 rpm for 10 seconds, and incubated at 23° C. in dark for 2 hours. • 3) Detection was performed by multimode reader. • 4) The PrismDemo software was used to analyze the data and fit the curve. 4. Experimental Results

[1] = test system: DSS induced ulcerative colitis in mice; experiment: DSS induced ulcerative colitis in mice; format: in vivo; set-up: key to Total stool scores: sum of shape (1-3) and bleeding (1-3) levels; normal = 1 each; conditions: for Weight / Total stool scores: 20 mg/kg oral gavage once a day
Description: Molecular weight of DSS dextran sodium sulfate: 36,000 to 50,000, From MP Biomedical Company.
Preparation of molding agent: preparation of 3.5% DSS: 49 g DSS plus 1,400 mL high-temperature sterilized water.
Source of SPF male C57BL/6 mice: Beijing Weitong Lihua Experimental Animal Technology Co., Ltd. • Animal age at the beginning of the experiment: 6 to 8 weeks; • Animal weight at the beginning of the experiment: 22 to 25 g; • Adaptation time: 3 to 5 days;
The mice were divided into groups according to their weight, 10 mice in each group. The mice were administrated once a day by gavage (or blank) according to the following Table 4.
Animals were given 3.5% DSS solution for free drinking water modeling (the day of modeling was recorded as day 1), and the modeling agent was replaced once every two days for 7 consecutive days, and then (day 8) 3.5% DSS was replaced with ordinary drinking water for another 1 day.
• Preparation of solvent 1: 0.66 mL DMSO, 1.32 mL Solutol and 11.22 mL Saline were mixed to prepare 13.2 mL of solvent 1; • Preparation of solvent 2: 0.3 mL DMSO, 0.6 mL Solutol and 5.1 mL Saline were mixed to prepare 6 mL of solvent 2; • Preparation of solution of compound of Example 3: 39.6 mg of compound of Example 3 was dissolved in 13.2 mL of solvent 1 to obtain the solution of compound 1 of Example 3, the solution 1 of compound of Example 3 was diluted with solvent 1 to prepare the solution of compound of Example 3 with concentrations of 2 mg/mL, 1 mg/mL, and 0.6 mg/mL; • Etrasimod solution: 6 mg of Etrasimod was dissolve in 6 mL of solvent 2 to obtain Etrasimod solution; • Ozanimod solution: 12 mg of […] was dissolved in 6 mL solvent 2 to obtain Ozanimod solution; • Note: Prepare once every two days, and store in refrigerator at 4° C.
Wherein, the purity of compound of Example 3 was 99.74%, Ozanimod and Etrasimod were prepared by the method described in Example 8, and the purities were 99.78% and 98.47% respectively.
The mouse stool was observed on its shape, bleeding condition every two days, and scored. Scoring criteria for stool condition: shape: normal (level 1), soft stool (level 2), and loose stool (level 3); traits: normal (level 1), faint redness (level 2), and bloody stool visible to the unaided eye (level 3).
After the last administration (8 consecutive days), the animals were dissected on the next day (day 9), the colon was separated, the whole colon was photographed, and the colon length was measured. Then the colon was cut longitudinally along the mesenteric side to remove the contents, which was weighed and observed on the integrity of the colonic mucosa. The colon was then fixed in 10% formalin.

[2] = test system: TNBS induced ulcerative colitis in rats; experiment: TNBS induced ulcerative colitis in rats; format: in vivo, rat; conditions: for Colon length / Colon weight / Colon weight/colon length / Ulcer area: day 8; for General anatomical view of colon, from excellent to poor: 7 days administration, SASP 360, Example 3 and Etrasimod 3, Ozanimod 10 mg/kg; for Drug efficacy intensity (colon weight): oral gavage for 7 consecutive days, doses as given in ranking
Description: Preparation of molding agent: 5 mL TNBS and 8.953 mL anhydrous ethanol and 26.741 sterilized water for injection. • TNBS comes from Dalian Meilun Biotechnology Co., Ltd. • Source of SPF male SD rats: Shanghai Slake Experimental Animal Co., Ltd. • Animal age at the beginning of the experiment: 8 to 10 weeks; • Animal weight at the beginning of the experiment: about 250 g; • Adaptation time: 5 to 7 days; • Animals were fasted (only water) for 24 hours. After inhalation anesthesia with isoflurane, all rats were perfused with 0.5 mL TNBS ethanol solution per rat (18 mg TNBS/rat) via rectum with latex hose, with the length of the hose entering the rectum of about 8 cm. After withdrawing the hose, the rats remained under isoflurane anesthesia, and kept in the inclined state of hip elevation for 15 minutes.
The rats after modeling were randomly divided into 5 groups: model group, positive control group using drug sulfasalazine (SASP, 360 mg/kg), test substance group using the compound of Example 3 (3 mg/kg), test substance group using Etrasimod (3 mg/kg), test substance group using Ozanimod (10 mg/kg).
At 3 hours after modeling, the animals in each group were administrated with medicine solution by oral gavage (Table 1), 5 mL/kg body weight (10 mL/kg in sulfasalazine group), once a day, for 7 consecutive days, and the feces of the animals and whether there is death were observed every day. On the 8th day, the animals were killed under CO2 overdose anesthesia followed by being dissected, the entire colon tissue was extracted, the contents of the colon were cleaned after longitudinal dissection along the mesenteric side, the colon was weighed and measured for its length, the area of the ulcer was measured, and the general situation was observed and photos were taken. Finally, the colon was fixed in 10% formalin, and H&E staining and histopathological analysis (inflammation, goblet cells, lesion depth, ulcer degree, crypt abscess) were performed.
Wherein, the compound of Example 3 of the invention, purity: 99.74%. • Etrasimod, prepared according to the literature method (the second isomer of Example 1.29 in WO2010/011316A1), purity: 98.47%. • Ozanimod, prepared according to the literature method (compound 86 in WO2011/060392A1), purity: 99.78%. • Sulfasalazine enteric-coated tablets, produced by Shanghai Fuda Pharmaceutical Co., Ltd., 0.25 g/tablet. Enteric coated tablets show yellow to brownish yellow after the coating is removed. • Solutol: Beijing Fengli Jingqiu Pharmaceutical Co., Ltd. • Solvent preparation: • DMSO, Solutol and 0.9% sodium chloride solution were mixed according to the volume ratio of 5:10:85 to prepare the solvent.
Preparation of compound of Example 3 and Etrasimod solution: 27 mg of test substances were taken respectively and dissolved in 45 mL of solvent to obtain corresponding test substance solution.
Ozanimod: 90 mg Ozanimod was dissolved in 45 mL solvent to obtain Ozanimod solution.
Preparation of SASP solution: six sulfasalazine enteric-coated tablets after grinding were added to 41.7 mL 0.5% CMC-Na, and then dissolved by ultrasonic to obtain SASP solution.
Due to the excipient factor of SASP drug preparation, the concentration should not be too high when suspended in 0.5% CMC-Na, otherwise the suspension was uneven and the mobility was poor, so the dose volume of SASP was doubled compared with the compound of Example 3 and Etrasimod.

[3] = 10 mg/kg oral gavage once a day for 7 days
[4] = 360 mg/kg oral gavage once a day for 7 days

T1 sequence (P21453 whole entry): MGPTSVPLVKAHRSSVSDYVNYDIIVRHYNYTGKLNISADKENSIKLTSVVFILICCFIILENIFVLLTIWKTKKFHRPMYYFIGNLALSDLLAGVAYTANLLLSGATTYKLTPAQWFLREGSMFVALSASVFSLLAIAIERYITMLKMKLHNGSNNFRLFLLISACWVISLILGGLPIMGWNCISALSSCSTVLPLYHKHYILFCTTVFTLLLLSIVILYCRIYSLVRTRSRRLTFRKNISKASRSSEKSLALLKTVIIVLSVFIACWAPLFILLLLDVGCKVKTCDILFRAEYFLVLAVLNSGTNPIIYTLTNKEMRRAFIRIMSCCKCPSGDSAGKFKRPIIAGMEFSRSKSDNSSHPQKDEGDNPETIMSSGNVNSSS

Cc1cc(OCc2ccc(C3CCCC3)c(C(F)(F)F)c2)cc2ccn(CCC(=O)O)c12 [Compound of Example 1, 3-(5-((4-cyclopentyl-3-(trifluoromethyl)benzyl)oxy)-7-methyl-1H-indole-1-yl)propionic acid]
IC50 (S1P1): 0.51 nM

CCc1cc(OCc2ccc(C3CCCC3)c(C(F)(F)F)c2)cc2ccn(CCC(=O)O)c12 [Compound of Example 2, 3-(5-((4-cyclopentyl-3-(trifluoromethyl)benzyl)oxy)-7-ethyl-1H-indole-1-yl)propionic acid]
IC50 (S1P1): 3.27 nM

Cc1cc(OCc2ccc(C3CCCC3)c(C(F)(F)F)c2)cc2ccn(CCCC(=O)O)c12 [Compound of Example 4, 4-(5-((4-cyclopentyl-3-(trifluoromethyl)benzyl)oxy)-7-methyl-1H-indole-1-yl)butyric acid]
IC50 (S1P1): 1.73 nM

O=C(O)CCCn1ccc2cc(OCc3ccc(C4CCCC4)c(C(F)(F)F)c3)cc(Cl)c21 [Compound of Example 5, 4-(7-chlorine-5-((4-cyclopentyl-3-(trifluoromethyl)benzyl)oxy)-1H-indole-1-yl)butyric acid]
IC50 (S1P1): 0.251 nM

O=C(O)Cn1ccc2cc(OCc3ccc(C4CCCC4)c(C(F)(F)F)c3)ccc21 [Compound of Example 6, 2-(5-((4-cyclopentyl-3-(trifluoromethyl)benzyl)oxy)-1H-indole-1-yl)acetic acid]
IC50 (S1P1): 175 nM

CC(C)Oc1ccc(-c2nc(-c3cccc4c3CC[C@@H]4NCCO)no2)cc1C#N [Ozanimod, reference compound]
Colon length compared with model group ([1]; 20 mg/kg): longer than that of the model group
Colon weight ([1]; 20 mg/kg oral gavage once a day for 8 days, day 9): 0.157 ± 0.01 g
Effect on blood stool and loose stool compared with model group ([1]; 20 mg/kg, day 9): had not significant improvement
Weight ([1]; Day 1): 21.2 ± 0.19 g
Weight ([1]; Day 2): 21.7 ± 0.25 g
Weight ([1]; Day 3): 21.7 ± 0.26 g
Weight ([1]; Day 4): 21.9 ± 0.33 g
Weight ([1]; Day 5): 21.5 ± 0.27 g
Weight ([1]; Day 6): 20.6 ± 0.54^ g
Total stool scores ([1]; Day 7): 5.9 ± 0.11
Weight ([1]; Day 7): 18.9 ± 0.54 g
Total stool scores ([1]; Day 8): 6.0 ± 0
Weight ([1]; Day 8): 18.0 ± 0.5 g
Total stool scores ([1]; Day 9): 5.1 ± 0
Weight ([1]; Day 9): 16.5 ± 0.49 g
Number of dead animals ([1]; by the end of the test period, 10 mice per group, doses as Table 4 (Ozanimod 20 mg/kg)): 3
Colon length [2, 3]: 13.09 ± 0.5 cm
Colon weight [2, 3]: 3.30 ± 0.53 g
Colon weight/colon length [2, 3]: 0.25 g/cm
Ulcer area [2, 3]: 498.04 ± 202.49 mm^2
General anatomical view of colon, from excellent to poor [2]: group using compound of Example 3>group using sulfasalazine>group using Etrasimod>group using Ozanimod
Weight ([2]; Day 1, 10 mg/kg oral gavage once a day): 247.1 ± 0.64 g
Weight ([2]; Day 2, 10 mg/kg oral gavage once a day): 225.6 ± 0.65 g
Weight ([2]; Day 3, 10 mg/kg oral gavage once a day): 225.1 ± 0.86 g
Weight ([2]; Day 4, 10 mg/kg oral gavage once a day): 225.9 ± 1.39 g
Weight ([2]; Day 5, 10 mg/kg oral gavage once a day): 231.3 ± 1.63 g
Weight ([2]; Day 6, 10 mg/kg oral gavage once a day): 239 ± 1.72 g
Weight ([2]; Day 7, 10 mg/kg oral gavage once a day): 247.8 ± 1.74 g
Weight ([2]; Day 8, 10 mg/kg oral gavage once a day): 262.8 ± 1.22 g
Drug efficacy intensity (colon weight) [2]: group using the compound of Example 3 (3 mg/kg)>group using Etrasimod (3 mg/kg)>group using sulfasalazine (360 mg/kg)>model group>group using Ozanimod (10 mg/kg)

O=C(O)c1cc(/N=N/c2ccc(S(=O)(=O)Nc3ccccn3)cc2)ccc1O [SASP, Sulfasalazine]
Colon length [2, 4]: 13.89 ± 0.45 cm
Colon weight [2, 4]: 3.35 ± 0.74 g
Colon weight/colon length [2, 4]: 0.24 g/cm
Ulcer area [2, 4]: 320.23 ± 167.1 mm^2
General anatomical view of colon, from excellent to poor [2]: group using compound of Example 3>group using sulfasalazine>group using Etrasimod>group using Ozanimod
Weight ([2]; Day 1, 360 mg/kg oral gavage once a day): 250.1 ± 0.48 g
Weight ([2]; Day 2, 360 mg/kg oral gavage once a day): 226.4 ± 0.34 g
Weight ([2]; Day 3, 360 mg/kg oral gavage once a day): 227.6 ± 1.13 g
Weight ([2]; Day 4, 360 mg/kg oral gavage once a day): 231.8 ± 1.59 g
Weight ([2]; Day 5, 360 mg/kg oral gavage once a day): 238.6 ± 1.83 g
Weight ([2]; Day 6, 360 mg/kg oral gavage once a day): 247.3 ± 1.91 g
Weight ([2]; Day 7, 360 mg/kg oral gavage once a day): 255 ± 2.01 g
Weight ([2]; Day 8, 360 mg/kg oral gavage once a day): 267.9 ± 1.9 g
Weight course compared with model group ([2]; SASP 360 mg/kg, Example 3 and Etrasimod 3 mg/kg, oral once a day): a certain tendency to inhibit the weight loss
Drug efficacy intensity (colon weight) [2]: group using the compound of Example 3 (3 mg/kg)>group using Etrasimod (3 mg/kg)>group using sulfasalazine (360 mg/kg)>model group>group using Ozanimod (10 mg/kg)
